In PubChem BioAssay (NCI) one finds TGI data, which are given here for 16 compounds.

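Protocol summary: plate cells (96-well), add compound at 5 concentrations, incubate 48 h, interpolate endpoints linearly. TGI denotes the concentration required for complete inhibition of growth.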

Test systems include HL-60(TB) leukemia; IGROV1 ovarian; OVCAR-5 ovarian; RPMI-8226 leukemia; SF-295 CNS; SK-MEL-5 melanoma; TK-10 renal; T-47D breast; NCI-H226 lung; HS 578T breast.
Holding throughout (assay): DTP human tumour cell line panel, 48 h

The TGI is the concentration giving total growth inhibition. Low values mean greater sensitivity of the cells, high ones lower sensitivity of the cells.

`CC(C(=O)N1C(=O)N(C(=O)C(C)C(O)c2ccccc2)C2CCCCC21)C(O)c1ccccc1` (stereo not given): the TGI in the test with HL-60(TB) leukemia is 70 µM; in the test on IGROV1 ovarian, > 100 µM; with OVCAR-5 ovarian, > 100 µM; in the test on RPMI-8226 leukemia it was > 100 µM; with SF-295 CNS it was > 100 µM; with SK-MEL-5 melanoma, > 100 µM. The TGI in the test with TK-10 renal was > 100 µM.
In the case of `C(=Nc1ccc(-c2nc3ccccc3o2)cc1)c1ccco1`, the concentration for total growth inhibition (TGI) is > 100 µM in the test with IGROV1 ovarian; > 100 µM in the test with OVCAR-5 ovarian; 36.9 µM in the test with RPMI-8226 leukemia; > 100 µM in the test on SK-MEL-5 melanoma; > 100 µM with T-47D breast.
Regarding `CC(=O)OCC1OC(n2cc(I)c(=O)[nH]c2=O)C(OC(C)=O)C(OC(C)=O)C1OC(C)=O` (stereo not given), the TGI with HL-60(TB) leukemia, with IGROV1 ovarian, in the test on NCI-H226 lung, with OVCAR-5 ovarian, with RPMI-8226 leukemia and with SF-295 CNS was > 100 µM throughout. For the same compound, the total growth inhibition concentration (TGI) with SK-MEL-5 melanoma and in the test on TK-10 renal was > 100 µM throughout.
As for `O=C1Sc2ccccc2C(=O)N2CSCC12` (stereo not given), the TGI in the test on HL-60(TB) leukemia, in the test on IGROV1 ovarian, in the test on NCI-H226 lung, in the test on RPMI-8226 leukemia, in the test with SF-295 CNS and in the test with SK-MEL-5 melanoma was > 100 µM each time. Also, the concentration for total growth inhibition (TGI) in the test with TK-10 renal was > 100 µM.
Regarding `O=C(NCCCN(CCCCN(CCCNC(=O)C(F)(F)F)Cc1ccc2ccccc2c1)Cc1ccc2ccccc2c1)C(F)(F)F`, the TGI with IGROV1 ovarian was > 100 µM; with NCI-H226 lung, > 100 µM; in the test with OVCAR-5 ovarian, > 100 µM; with RPMI-8226 leukemia it was 7.15 µM; in the test with SF-295 CNS it was > 100 µM; with SK-MEL-5 melanoma, 3.38 µM. In addition, the total growth inhibition concentration (TGI) with T-47D breast and with TK-10 renal was > 100 µM in each case.
Take `N#CCc1nc(-c2ccccc2)n[nH]1`: the TGI in the test with HL-60(TB) leukemia, with HS 578T breast, with IGROV1 ovarian, in the test on OVCAR-5 ovarian, in the test with SF-295 CNS and in the test with SK-MEL-5 melanoma was > 100 µM in each case. For the same compound, the TGI with T-47D breast and in the test with TK-10 renal was > 100 µM each time.
Take `COc1ccc(-c2oc(/C=N/NC(N)=S)c([N+](=O)[O-])c2-c2ccc(OC)c(OC)c2)cc1OC`: the TGI in the test on HL-60(TB) leukemia is 55 µM; in the test on IGROV1 ovarian, > 100 µM; with NCI-H226 lung, 62.4 µM; with OVCAR-5 ovarian it was > 100 µM; in the test with RPMI-8226 leukemia, 41.5 µM; in the test with SF-295 CNS, 53.4 µM. Further, in the test on TK-10 renal, the TGI is > 100 µM.
In the case of `O=C(CNc1c(Cl)cccc1Cl)NC1C=Cc2ccc(S(=O)(=O)Nc3c(Cl)cccc3Cl)cc2C1=O` (stereo not given), the TGI with HL-60(TB) leukemia, with HS 578T breast, in the test with IGROV1 ovarian, in the test with NCI-H226 lung, with OVCAR-5 ovarian and in the test on RPMI-8226 leukemia was > 100 µM each time. Moreover, the total growth inhibition concentration (TGI) in the test with SF-295 CNS and in the test on TK-10 renal was > 100 µM in each case.
As to `CC1CN=C(N(C(=O)Nc2ccc(F)c(Cl)c2)c2ccccc2)S1` (stereo not given), the concentration for total growth inhibition (TGI) with HS 578T breast is > 100 µM; with IGROV1 ovarian it was > 100 µM; in the test on OVCAR-5 ovarian, 76.3 µM; in the test on RPMI-8226 leukemia, > 100 µM; with SF-295 CNS, > 100 µM; in the test on SK-MEL-5 melanoma it was 30 µM. For the same compound, the values for the TGI in the test with T-47D breast and with TK-10 renal were > 100 µM and 68.4 µM, respectively.
For `Cc1c(N2C(=O)C(Cl)C2c2ccc(Cl)cc2)c(=O)n(-c2ccccc2)n1C` (stereo not given), the TGI in the test with HL-60(TB) leukemia was > 100 µM; in the test with IGROV1 ovarian, > 100 µM; with NCI-H226 lung, > 100 µM; in the test on OVCAR-5 ovarian, > 100 µM; in the test with RPMI-8226 leukemia it was 42.6 µM; with SF-295 CNS it was > 100 µM. For the same compound, the TGI in the test with SK-MEL-5 melanoma, in the test with T-47D breast and with TK-10 renal was > 100 µM each time.
`O=C(Nc1ccccc1F)c1cc2ccc(O)cc2oc1=Nc1ccccc1F`: the TGI with HL-60(TB) leukemia stood at 4.54 µM; in the test on HS 578T breast, 5.03 µM; with IGROV1 ovarian, 4.13 µM; in the test on OVCAR-5 ovarian, 15.3 µM; in the test on RPMI-8226 leukemia it was 7.84 µM; in the test with SF-295 CNS, 8.48 µM. The TGI in the test on SK-MEL-5 melanoma is 3.85 µM; in the test on T-47D breast, 4.63 µM.
With `CCN(CC)CCCNC(=O)c1ccc([N+](=O)[O-])cc1O`, the TGI with HL-60(TB) leukemia, in the test on IGROV1 ovarian, with NCI-H226 lung, in the test on OVCAR-5 ovarian, with SF-295 CNS and with SK-MEL-5 melanoma was > 100 µM in each case. In addition, in the test on TK-10 renal, the TGI is > 100 µM.
Take `C=C1c2cc3c(cc2CC12Cc1cc4c(cc1C2=O)CCC4)CCC3` (stereo not given): the TGI with HL-60(TB) leukemia, in the test with HS 578T breast, with IGROV1 ovarian, in the test on OVCAR-5 ovarian, with RPMI-8226 leukemia and in the test on SF-295 CNS was > 100 µM each time. Besides, the TGI with SK-MEL-5 melanoma, with T-47D breast and with TK-10 renal was > 100 µM each time.
Turning to `CC(O)CCCOC(c1ccccc1)(c1ccccc1)c1ccccc1` (stereo not given), the TGI with HL-60(TB) leukemia was > 55.1 µM; in the test with HS 578T breast, 39.6 µM; in the test with IGROV1 ovarian it was 29.9 µM; in the test on NCI-H226 lung, 30.2 µM; with OVCAR-5 ovarian it was 30.5 µM; in the test on RPMI-8226 leukemia it was > 55.6 µM. Moreover, the total growth inhibition concentration (TGI) in the test on SF-295 CNS stood at 27.4 µM; in the test with SK-MEL-5 melanoma, 16.6 µM; in the test with TK-10 renal, 30.6 µM.
`O=C(CN(c1ccccc1)c1ccccc1)N1c2ccccc2C2C=CC=CC21` (stereo not given): the TGI was 25.7 µM with HL-60(TB) leukemia; 47.3 µM with IGROV1 ovarian; 44.6 µM in the test on NCI-H226 lung; > 57.8 µM with OVCAR-5 ovarian; > 28.1 µM in the test on RPMI-8226 leukemia; 58.8 µM in the test on SF-295 CNS. Moreover, the TGI in the test on SK-MEL-5 melanoma was 29.9 µM; with TK-10 renal, > 57.2 µM.
As to `CCc1c[n+]([O-])c(C)cc1[N+](=O)[O-]`, the TGI in the test on HL-60(TB) leukemia, in the test with HS 578T breast, in the test on IGROV1 ovarian, with OVCAR-5 ovarian, with RPMI-8226 leukemia and in the test with SF-295 CNS was > 100 µM in each case. Further, the TGI in the test on SK-MEL-5 melanoma, in the test on T-47D breast and in the test with TK-10 renal was > 100 µM throughout.
